# In patent publication US5180742A, “Quinone derivatives, their production and use” (Takeda Chemical Industries, Ltd., priority 1984, dated 1993):
# What was measured:
# [1] = tested on: O2^- production in guinea pigs peritoneal macrophages; assay: Inhibitory effect on O2- production in guinea pig peritoneal macrophages (chemiluminescence); type: cell-based, guinea pig (Hartley); conditions: Cavia porcellus, Peritoneal macrophage, 3 experiments
# Experimental: Superoxide (O2^-) Production in Guinea Pig Peritoneal Macrophages
# Male Hartley guinea pigs weighing 400-450 g were given intraperitoneally 5 ml of liquid paraffin. Four days later, 15 ml of Hank's buffer were administered into the peritoneal cavity for harvest of peritoneal cells. Macrophages in the peritoneal cells were purified by the method of Wood, P. R. [J. Immunol. Methods, 28, 117-124 (1979)].
# The purity of macrophages was more than 95%. The reaction mixture contained 75 μl of macrophages (1×10^7 cells/ml), 5 μl of luminol, 10 μl of phorbol myristate acetate and 10 μl of drugs in a total volume of 100 μl. O2^- Product was assayed by chemiluminescence. Drugs were dissolved in a 10% dimethyl sulfoxide.
# [2] = tested on: PAF-induced bronchoconstriction; assay: Effect on PAF-induced bronchoconstriction in guinea pigs; type: in vivo; conditions: one hour before PAF
# Experimental: Platelet Activating Factor (PAF)-Induced Bronchoconstriction in Guinea Pigs
# Experimental procedure in this experiment was the same as that in LTD4 -induced bronchoconstriction shown in Experimental example 7. PAF is an intraveneous dose of 1 μg/kg was used. Each specimen suspended in a 5% gum arabic solution was given orally one hour before the PAF administration.
# [3] = tested on: Immunoglobulin-G1 mediated bronchoconstriction reaction; assay: Action on immunoglobulin-G1 mediated bronchoconstriction reaction in guinea pigs; type: in vivo, Hartley guinea pigs; conditions: Cavia porcellus; 20 mg/kg oral, 1 hour before antigen
# Experimental: Action on the Immunoglobulin-G1 Mediated Bronchoconstriction Reaction in Guinea Pigs
# In accordance with the method of Orange and Moore (Orange, R. P. and Moore E. G. , J. Immunol., 116, 392-397, 1976), female and male Hartley guinea pigs weighing about 350 g were sensitized by intraperitoneal application of an emulsion (1 ml) composed of egg albumin (1 mg) and Freund's complete adjuvant (produced by Wako Pure-Chemical Industries, Ltd. of Japan). 3 Weeks after the sensitization, a serum antibody level in the sensitized guinea pigs was measured by means of the 3-hours passive cutaneous anaphylaxis (PCA) reaction in guinea pigs. […] The broncoconstriction reaction resulting from the antigen-antibody reaction was measured in accordance with the Konzett-Rossler method (Konzett, H. and Rossler, R., Naunyn-Schmiedeberg'ss Arch. exp. Path. pharmak., 195, 71-74, 1940). The guinea pigs were fixed on the dorsal position under anesthesia with a urethane (1.5 g/kg given intraperitonealy). An incision was made through the trachea, which was connected to an artificial respirator (manufactured by Harvard Co.) through an endotracheal tube, with a side tube of the endotracheal tube being attached to a brochoconstricting transducer (type 7020, manufactured by Ugobasile Co.). While an air volume per ventilation was adjusted to 5 to 7 ml and an air ventilation rate was controlled at 70 times/min., with a load pressure to the lung set at 10 cm H2 O, the overflown air volume was recorded on Rectigraphy-8S (manufactured by Sanei Sokki Inc. of Japan) through a transducer. After 1 mg/kg of gallamine triethiodide was given intravenously to the animals, 1 mg/kg of antigen, egg albumin dissolved in physiological saline, was applied intravenously to induce a brochoconstriction reaction. The bronchconstriction reaction was recorded for the period of time of 15 minutes. A drug was suspended in 5% gum arabic solution, and given orally 1 hour before the application of the antigen. Percent inhibition of the immunoglobuin G1 mediated bronchoconstriction reaction in guinea pigs are shown below in Table 3.
# [4] = tested on: LTD4-induced bronchoconstriction; assay: Effect on LTD4-induced bronchoconstriction in guinea pigs; type: in vivo
# Experimental: Effect on LTD4 -Induced Brochoconstriction in Guinea Pigs
# Bronchoconstriction in guinea pigs was measured by the method of Konzett-Rossler[Naunyn-Schmiedeberg's Arch. exp. Path. Pharmak., 195, 71-74(1940)]. The animals were anesthetized with urethane (1.5 g/kg, intraperitoneally) and the trachea was cannulated. The animals were artificially ventilated by means of a respirator (Harvard apparatus rodent respirator) at a rate of 70 strokes/min and a constant volume of 5-7 ml. Inflation pressure was kept constantly at 10 cm H2 O. Changes in overflow of air from a side-arm of the cannula were recorded on Rectigraph-8S via a bronchospasm transducer for 15 min. LTD4 (10 μg/kg) was given into the […] through an indwelling cannula. Each specimen suspended in a 5% gum arabic solution was also given through the same cannula 1 or 24 hrs before the LTD4 administraction.
# mice of ICR breed = type: in vivo; conditions: 1000 mg/kg oral, male ICR mice, 7 days
# Text: Acute Toxicity Test in Mice (Acute Toxicity)
# 1000 Milligrams per kilogram of each set specimen was applied orally to groups of 5 five-weeks old male mice of ICR breed, and a number of dead animals observed for the 7-days period was counted.
# 5-Lipoxygenase = biological target: T1, 5-Lipoxygenase (Rattus norvegicus, UniProt P12527); assay: 5-Lipoxygenase inhibitory activity: 5-HETE production in RBL-1 cells (HPLC); type: cell-based, rat (RBL-1, rat basophilic leukemia cells); conditions: arachidonic acid + A 23187, 37° C., 20 minutes, read-out: 5-HETE production inhibiting effect (IC50)
# T1 construct: endogenous in cells; host or cells: RBL-1 (rat basophilic leukemia cells)
# T1 sequence (P12527 1-673): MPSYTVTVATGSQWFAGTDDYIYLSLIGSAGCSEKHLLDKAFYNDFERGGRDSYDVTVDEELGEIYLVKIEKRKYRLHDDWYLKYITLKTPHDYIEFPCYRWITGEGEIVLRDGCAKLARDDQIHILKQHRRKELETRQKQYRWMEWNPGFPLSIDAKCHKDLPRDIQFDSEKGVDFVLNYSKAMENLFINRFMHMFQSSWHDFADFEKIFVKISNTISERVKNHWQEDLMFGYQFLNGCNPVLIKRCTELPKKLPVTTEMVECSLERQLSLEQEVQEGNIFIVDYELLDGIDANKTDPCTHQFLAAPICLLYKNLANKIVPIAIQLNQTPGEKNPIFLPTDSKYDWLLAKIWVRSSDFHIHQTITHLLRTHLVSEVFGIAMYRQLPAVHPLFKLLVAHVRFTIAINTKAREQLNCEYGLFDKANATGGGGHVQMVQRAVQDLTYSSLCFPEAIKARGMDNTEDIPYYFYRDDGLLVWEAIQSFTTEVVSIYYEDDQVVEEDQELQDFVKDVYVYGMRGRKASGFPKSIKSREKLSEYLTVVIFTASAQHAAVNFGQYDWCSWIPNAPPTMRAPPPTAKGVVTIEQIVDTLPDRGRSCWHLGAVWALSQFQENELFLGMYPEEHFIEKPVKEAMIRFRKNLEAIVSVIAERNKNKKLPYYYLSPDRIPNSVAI
# Experimental: 5-Lipoxygenase Inhibitory Activity
# 10^7 RBL-1 cells (rat basophilic leukemia cells) were suspended in 0.5 ml of MCM (mast cell medium), and test solutions (made up of 0.5 ml of MCM, 50 μg of arachidonic acid, 10 μg of A 23187 (calcium ionophore, Eli Lilly) and 1 μM, 0.1 μM, 0.01 μM and0.001 μM as the final concentration of the quinone compound, respectively) prepared previously were added respectively to the suspension, followed by reaction at 37° C. for 20 minutes. After the conclusion of the reaction, 4 ml of ethanol and 1,4-dimethoxy-2-methyl-3-(3-methoxypropyl)naphthalene as the internal reference drug were added to the reaction solution, and the mixture was shaken thoroughly and allowed to stand at room temperature for 10 minutes. Then, it was centrifuged (2000 r.p.m.) for 10 minutes, and the supernatant fluid was separated and concentrated to dryness under reduced pressure. 0.5 Milliliter of 60% aqueous methanol was added to the concentrate, and 100 μl of the resulting solution was taken and subjected to high-performance liquid chromatography to determine amount of 5-HETE (5-hydroxyeicosatetraenoic acid). Determination of 5-HETE was made through measurement of an absorption at 237 nm with a UV absorption monitor.
# The 5-HETE production inhibitory effect (IE) was expressed by [formula] wherein a is a peak height or peak area corrected by the peak for the internal reference when the quinone compound is not contained; b is a peak height or peak area corrected by the peak for the internal reference when the quinone compound is contained.
# [5] = tested on: lipid peroxides production in rat brain homogenates; assay: Inhibitory action on lipid peroxides production in rat brain homogenates (thiobarbituric acid method); type: biochemical, rat (SD); conditions: n = 4-6
# Experimental: Inhibitory Action on Lipid Peroxides Production in Rat Brain Homogenates
# The male SD rat brain tissue was used as 5% homogenate in phosphate-buffered solution. After incubation of the homogenate for 1 hour at 37° C., the amount of lipid peroxides produced was determined by the thiobarbituric acid method according to the description of Ohkawa et al. (Analytical Biochemistry, 95: 551, 1979)
# Test compounds were used as a solution of dimethylsulfoxide. The inhibitory action on lipid peroxide production was expressed as a % inhibition as compared with the amount of production in the vehicle group. Results
compound,measurement,setting,value
"Cc1c(C)c2c(c(C)c1O)CCC(C)(CCCC(C)CCCC(C)CCCC(C)C)O2 (racemic) [dl-α-tocophenol, reference compound]",inhibition at 100 µM,[1]; 10^-4 M,11 ± 6%
same,inhibition at 10 µM,[1]; 10^-5 M,3 ± 2%
"COc1ccc(C(CCCCC(=O)O)C2=C(C)C(=O)C(C)=C(C)C2=O)cc1 (stereo not shown) [Compound No. 22, 6-(3,5,6-trimethyl-1,4-benzoquinon-2-yl)-6-(4-methoxyphenyl)hexanoicacid]",% Inhibition of PAF-induced bronchoconstriction,[2]; 0.313 mg/kg oral,43%
same,% Inhibition of PAF-induced bronchoconstriction,[2]; 1.25 mg/kg oral,92%
same,% Inhibition of PAF-induced bronchoconstriction,[2]; 5 mg/kg oral,91%
same,inhibition in vivo at 20 mg/kg,[3],82%
same,% Inhibition of LTD4-induced bronchoconstriction,"[4]; 0.313 mg/kg, 1 hr. before LTD4",39%
same,% Inhibition of LTD4-induced bronchoconstriction,"[4]; 1.25 mg/kg, 1 hr. before LTD4",85%
same,% Inhibition of LTD4-induced bronchoconstriction,"[4]; 5 mg/kg, 1 hr. before LTD4",90%
same,% Inhibition of LTD4-induced bronchoconstriction,"[4]; 5 mg/kg, 24 hrs. before LTD4",24%
CC1=C(C)C(=O)C(C(CCCCCC(=O)O)c2ccc(F)cc2)=C(C)C1=O (stereo not shown) [Compound No. 87],Acute toxicity (number of dead animals/number of animals used),mice of ICR breed,0/5
same,% Inhibition of PAF-induced bronchoconstriction,[2]; 0.08 mg/kg oral,64%
same,% Inhibition of PAF-induced bronchoconstriction,[2]; 0.313 mg/kg oral,48%
same,% Inhibition of PAF-induced bronchoconstriction,[2]; 1.25 mg/kg oral,71%
same,IC50,5-Lipoxygenase,100 nM
same,inhibition in vivo at 20 mg/kg,[3],81%
same,% Inhibition of LTD4-induced bronchoconstriction,"[4]; 0.313 mg/kg, 1 hr. before LTD4",80%
same,% Inhibition of LTD4-induced bronchoconstriction,"[4]; 1.25 mg/kg, 1 hr. before LTD4",89%
same,% Inhibition of LTD4-induced bronchoconstriction,"[4]; 5 mg/kg, 1 hr. before LTD4",93%
same,% Inhibition of LTD4-induced bronchoconstriction,"[4]; 5 mg/kg, 24 hrs. before LTD4",79%
"CC1=C(C)C(=O)C(C(CCCCCC(=O)O)c2ccc(Cl)cc2)=C(C)C1=O (stereo not shown) [Compound No. 90, 7-(4-chlorophenyl)-7-(3,5,6-trimethyl-1,4-benzoquinon-2-yl)heptanoic acid]",Acute toxicity (number of dead animals/number of animals used),mice of ICR breed,0/5
same,inhibition in vivo at 20 mg/kg,[3],61%
COc1ccc(C(CCCCCC(=O)O)C2=C(C)C(=O)C(C)=C(C)C2=O)cc1 (stereo not shown) [compound 23],% Inhibition of PAF-induced bronchoconstriction,[2]; 0.08 mg/kg oral,75%
same,% Inhibition of PAF-induced bronchoconstriction,[2]; 0.313 mg/kg oral,71%
same,% Inhibition of PAF-induced bronchoconstriction,[2]; 1.25 mg/kg oral,73%
same,IC50,5-Lipoxygenase,10 nM
same,inhibition in vivo at 20 mg/kg,[3],83%
same,% Inhibition of LTD4-induced bronchoconstriction,"[4]; 0.313 mg/kg, 1 hr. before LTD4",69%
same,% Inhibition of LTD4-induced bronchoconstriction,"[4]; 1.25 mg/kg, 1 hr. before LTD4",80%
same,% Inhibition of LTD4-induced bronchoconstriction,"[4]; 5 mg/kg, 1 hr. before LTD4",68%
same,% Inhibition of LTD4-induced bronchoconstriction,"[4]; 5 mg/kg, 24 hrs. before LTD4",49%
CC1=C(C)C(=O)C(C(CCCCCC(=O)O)c2ccc(C)s2)=C(C)C1=O (stereo not shown) [compound 33],Acute toxicity (number of dead animals/number of animals used),mice of ICR breed,0/5
same,inhibition in vivo at 20 mg/kg,[3],75%
CC1=C(C)C(=O)C(C(CCCC(=O)O)c2ccccc2)=C(C)C1=O (stereo not shown) [compound 36],Acute toxicity (number of dead animals/number of animals used),mice of ICR breed,0/5
same,IC50,5-Lipoxygenase,320 nM
same,inhibition in vivo at 20 mg/kg,[3],80%
COC1=C(OC)C(=O)C(C(CCCCCC(=O)O)c2ccc(F)cc2)=C(C)C1=O (stereo not shown) [compound 88],Acute toxicity (number of dead animals/number of animals used),mice of ICR breed,0/5
same,inhibition in vivo at 20 mg/kg,[3],79%
CC1=C(C(CCCCCC(=O)O)c2ccc(Cl)cc2)C(=O)c2ccccc2C1=O (stereo not shown) [compound 92],Acute toxicity (number of dead animals/number of animals used),mice of ICR breed,0/5
same,inhibition in vivo at 20 mg/kg,[3],92%
COC1=C(OC)C(=O)C(C(CCCCCC(=O)O)c2ccc(C)cc2)=C(C)C1=O (stereo not shown) [compound 94],Acute toxicity (number of dead animals/number of animals used),mice of ICR breed,0/5
same,inhibition in vivo at 20 mg/kg,[3],81%
CC1=C(C)C(=O)C(C(CCCCCC(=O)O)c2ccc(C(C)C)cc2)=C(C)C1=O (stereo not shown) [compound 95],Acute toxicity (number of dead animals/number of animals used),mice of ICR breed,0/5
same,inhibition in vivo at 20 mg/kg,[3],63%
COc1ccc(C(CCCCCC(=O)O)C2=C(C)C(=O)C(C)=C(C)C2=O)cc1OC (stereo not shown) [compound 97],Acute toxicity (number of dead animals/number of animals used),mice of ICR breed,0/5
same,inhibition in vivo at 20 mg/kg,[3],85%
tocopherol [reference compound],Inhibition of lipid peroxides production,[5]; 10^-4 M,46.5 ± 2.5%
same,Inhibition of lipid peroxides production,[5]; 10^-5 M,51.8 ± 10.2%
same,Inhibition of lipid peroxides production,[5]; 10^-6 M,0%
